≈ marks a conversion by molar mass, not a printed value. Read-outs that look alike come from different tables or passages of the source.
Legend:
[1] = Aqueous solubility of Compound A; assay type: physicochemical; conditions: aqueous buffer
Description: In order to enable safe and effective administration of Compound A, and to elicit the required therapeutic effects, Compound A needs to be solubilized at higher concentration than its aqueous solubility.

[2] = Solubility test in various carriers (Example 1); assay type: physicochemical; conditions: thermodynamic from solid; for solubility at 2 h: read-out: Solubility after 2 h
Procedure: The solubility of ‘Compound A, H2SO4’ was studied in various media, including: • citrate buffer (pH=2; 50 mM), acetate buffer (pH=4; 50 mM) and phosphate buffer (pH=6-7.4; 67.7 mM); • cyclodextrins of the type sulfobutyl ether β-cyclodextrin (SBE-β-cyclodextrin) or hydroxypropyl β-cyclodextrin (HP-β-cyclodextrin); more precisely, the SBE-β-cyclodextrin tested is Dexsolve™ marketed by Cyclolab, while the HP-β-cyclodextrins tested are Cavitron™ W7HP7 and Cavitron™ W7HP5 marketed by Wacker; Kleptose™ HP and Kleptose™ HPB marketed by Roquette; • surfactants such as polysorbate 80 and Kolliphor™ ELP; • the mixture PEG400/ethanol/0.9% NaCl (40/10/50).
5 g of the cyclodextrin studied (Dexsolve™, Cavitron™ W7HP7, Cavitron™ W7HP5, Kleptose™ HP or Kleptose™ HPB) are weighed into a […] graduated flask. Approximately 15 mL of water are added and the whole obtained is subjected to magnetic stirring. The volume is then made up to 25 mL by the addition of water. The whole is placed under magnetic stirring for 10 minutes.
1 g of the surfactant studied is weighed into a 50 mL graduated flask. The volume is then made up to 50 mL by means of 0.9% NaCl solution. The whole is placed under magnetic stirring for 1 hour.
20 mL of PEG 400, 5 mL of ethanol and 25 mL of NaCl are taken. The whole is placed in a 100 mL Erlenmeyer flask and stirred magnetically for 30 minutes.
Approximately 340 mg of ‘Compound A, H2SO4’ are weighed into a 5 mL tube. 3 mL of the medium containing the carrier to be tested are then added. The whole is then placed under magnetic stirring for 2 hours or 24 hours. The suspension or solution so obtained is passed through a 0.2 μm filter (PVDF membrane—Millipore) before being analysed by HPLC. In addition, the presence of degradation products of Compound A was investigated in the samples stored for 72 hours at ambient temperature.

[3] = PK parameters in RS4;11 grafted female SCID mice; assay type: in vivo; conditions: for AUCt/Dose / Co / tlast / concentration at 6 h / AUC / half-life / AUC(0-t): one i.v. treatment; for Co / tlast / concentration at 6 h / AUC / half-life: 20% HP-β-cyclodextrin solution; for concentration at 6 h / AUC / half-life / AUC(0-t) / Cmax: female, SCID, mouse, blood; for concentration at 6 h: intravenous, read-out: Clast; for AUC / half-life / AUC(0-t) / Cmax: iv; for half-life: read-out: t1/2, z (converted); for AUC(0-t): administration to the last point
Procedure: RS4;11 cell line, obtained from ATCC, were subcutaneously injected into female SCID mice, provided by Charles River. When tumors reached the appropriate tumor volume, mice were randomized using Easy stat software. […]
In a 100 mL flask, introduce 20 g of Cavitron™ W7HP5 and add around 75 mL of a solution water/0.9% NaCl (70/30, v/v). Stir for 15 minutes at room temperature. Then, make up the solution to a volume of 100 mL by adding the previous solution water/0.9% NaCl, while maintaining magnetic stirring. Weigh the necessary amount of ‘Compound A, H2SO4’ and dissolve it with the previous 20% w/v Cavitron™ W7H5 solution. Heat the whole at 60° C. under vigorous magnetic stirring until solubilisation of the components of the mixture is complete. Measure the pH of the solution obtained. Adjust the pH to 3 by adding drop by drop, either HCl 0.1N or NaOH 0.1N, depending on the concentration of Compound A. Stir the mixture at least for 1 hour. Filtrate the obtained solution with a 0.2 μm-filter.
A 20% w/v Cavitron™ W7H5 solution containing a dose of 4 mg/mL of Compound A was prepared following this procedure. A second solution containing a dose of 1.5 mg/mL of Compound A was also prepared by diluting further the previous solution with the 20% w/v Cavitron™ W7H5 solution.

RS4;11 = experiment: Efficacy in RS4;11 xenograft model in mice; assay type: in vivo; conditions: day 21, 20% HP-β-cyclodextrin solution
Procedure: The in vivo therapeutic effect of Compound A formulated in a solution comprising 20% of a HP-β-cyclodextrin w/v, was determined in the RS4;11 model after intravenous administration.
RS4;11 cell line, obtained from ATCC, were subcutaneously injected into female SCID mice, provided by Charles River. When tumors reached the appropriate tumor volume, mice were randomized using Easy stat software. Compound A (15 mg/kg or 40 mg/kg expressed as free base) was injected i.v. once a week over two weeks.
In a 100 mL flask, introduce 20 g of Cavitron™ W7HP5 and add around 75 mL of a solution water/0.9% NaCl (70/30, v/v). Stir for 15 minutes at room temperature. Then, make up the solution to a volume of 100 mL by adding the previous solution water/0.9% NaCl, while maintaining magnetic stirring. Weigh the necessary amount of ‘Compound A, H2SO4’ and dissolve it with the previous 20% w/v Cavitron™ W7H5 solution. Heat the whole at 60° C. under vigorous magnetic stirring until solubilisation of the components of the mixture is complete. Measure the pH of the solution obtained. […]
Mice were monitored for tumor development and body weight three times a week and tumor size was measured using electronic calipers. […] The last day with all control animals still present in the study, tumor growth inhibition was calculated using the formula: […]
wherein ‘DTV (Delta Tumor Volume) at Dx’ is calculated as follows: […]

`Cc1c(N(C(=O)c2cc(-c3cc(Cl)ccc3C(=O)N3Cc4ccccc4C[C@H]3CN3CCOCC3)n(C)c2C)c2ccc(O)cc2)cc(C#N)n1C` [Compound A, H2SO4, 5-(5-chloro-2-{[(3S)-3-(morpholin-4-ylmethyl)-3,4-dihydroisoquinolin-2(1H)-yl]carbonyl}phenyl)-N-(5-cyano-1,2-dimethyl-1H-pyrrol-3-yl)-N-(4-hydroxyphenyl)-1,2-dimethyl-1H-pyrrole-3-carboxamide] showed a solubility ([1]; aqueous medium, at pH=2.5) of 1400 µg/mL (≈ 1.95 mM), a solubility at 2 h ([2]; 2% Kolliphor ELP solution, aqueous with cosolvent or surfactant or cyclodextrin, carrier: 2% Kolliphor ELP) of 2080 µg/mL (≈ 2.9 mM) and a solubility at 24 h ([2]; 2% Kolliphor ELP solution, aqueous with cosolvent or surfactant or cyclodextrin, carrier: 2% Kolliphor ELP, read-out: Solubility after 24 h) of 1740 µg/mL (≈ 2.43 mM). For the same molecule, the solubility at 2 h ([2]; 2% Polysorbate 80 solution, aqueous with cosolvent or surfactant or cyclodextrin, carrier: 2% Polysorbate 80) was 2300 µg/mL (≈ 3.21 mM), the solubility at 24 h ([2]; 2% Polysorbate 80 solution, aqueous with cosolvent or surfactant or cyclodextrin, carrier: 2% Polysorbate 80, read-out: Solubility after 24 h) was 1960 µg/mL (≈ 2.73 mM) and the solubility at 2 h ([2]; aqueous buffer, carrier: Acetate buffer (pH=4; 50 mM)) was 200 µg/mL (≈ 0.279 mM). The solubility at 24 h ([2]; aqueous buffer, carrier: Acetate buffer (pH=4; 50 mM), read-out: Solubility after 24 h) was 180 µg/mL (≈ 0.251 mM), the solubility at 2 h ([2]; aqueous buffer, carrier: Citrate buffer (pH=2; 50 mM)) was 240 µg/mL (≈ 0.335 mM) and the solubility at 24 h ([2]; aqueous buffer, carrier: Citrate buffer (pH=2; 50 mM), read-out: Solubility after 24 h) was 250 µg/mL (≈ 0.349 mM). The solubility at 2 h ([2]; aqueous buffer, carrier: Phosphate buffer (pH=6-7.4; 67.7 mM)) was 210 µg/mL (≈ 0.293 mM), the solubility at 24 h ([2]; aqueous buffer, carrier: Phosphate buffer (pH=6-7.4; 67.7 mM), read-out: Solubility after 24 h) was 520 µg/mL (≈ 0.725 mM) and the solubility at 2 h ([2]; aqueous with cosolvent or surfactant or cyclodextrin, carrier: Cavitron W7HP5, 20% by weight cyclodextrin solution) was 25200 µg/mL (≈ 35.1 mM). It also gave a solubility at 24 h ([2]; aqueous with cosolvent or surfactant or cyclodextrin, carrier: Cavitron W7HP5, 20% by weight cyclodextrin solution, read-out: Solubility after 24 h) of 30200 µg/mL (≈ 42.1 mM), a solubility at 2 h ([2]; aqueous with cosolvent or surfactant or cyclodextrin, carrier: Cavitron W7HP7, 20% by weight cyclodextrin solution) of 17900 µg/mL (≈ 24.9 mM) and a solubility at 24 h ([2]; aqueous with cosolvent or surfactant or cyclodextrin, carrier: Cavitron W7HP7, 20% by weight cyclodextrin solution, read-out: Solubility after 24 h) of 21200 µg/mL (≈ 29.5 mM). For the same molecule, the solubility at 2 h ([2]; aqueous with cosolvent or surfactant or cyclodextrin, carrier: Dexsolve, 20% by weight cyclodextrin solution) was 23400 µg/mL (≈ 32.7 mM), the solubility at 24 h ([2]; aqueous with cosolvent or surfactant or cyclodextrin, carrier: Dexsolve, 20% by weight cyclodextrin solution, read-out: Solubility after 24 h) was 23200 µg/mL (≈ 32.3 mM) and the solubility at 24 h ([2]; aqueous with cosolvent or surfactant or cyclodextrin, carrier: Kleptose HP, 20% by weight cyclodextrin solution, read-out: Solubility after 24 h) was 25000 to 26000 µg/mL (≈ 34.9 to 36.2 mM). The solubility at 24 h ([2]; aqueous with cosolvent or surfactant or cyclodextrin, carrier: Kleptose HPB, 20% by weight cyclodextrin solution, read-out: Solubility after 24 h) was 30000 to 31000 µg/mL (≈ 41.8 to 43.2 mM), the solubility at 2 h ([2]; aqueous with cosolvent or surfactant or cyclodextrin, carrier: PEG400/EtOH/0.9% NaCl (40/10/50)) was 10300 µg/mL (≈ 14.4 mM) and the solubility at 24 h ([2]; aqueous with cosolvent or surfactant or cyclodextrin, carrier: PEG400/EtOH/0.9% NaCl (40/10/50), read-out: Solubility after 24 h) was 10800 µg/mL (≈ 15 mM). It also gave a solubility at 2 h ([2]; organic solvent or mixture, carrier: Absolute ethanol) of 1060 µg/mL (≈ 1.48 mM), a solubility at 24 h ([2]; organic solvent or mixture, carrier: Absolute ethanol, read-out: Solubility after 24 h) of 1130 µg/mL (≈ 1.58 mM) and a solubility at 2 h ([2]; organic solvent or mixture, carrier: PEG 400) of 11700 µg/mL (≈ 16.3 mM). For the same molecule, the solubility at 24 h ([2]; organic solvent or mixture, carrier: PEG 400, read-out: Solubility after 24 h) was 11200 µg/mL (≈ 15.6 mM), the solubility at 2 h ([2]; carrier: Water) was 2870 µg/mL (≈ 4 mM) and the solubility at 24 h ([2]; carrier: Water, read-out: Solubility after 24 h) was 1560 µg/mL (≈ 2.17 mM). The AUCt/Dose ([3]; 15 mg/kg) was 1360 ng·h/mL per mg/kg, the Co ([3]; 15 mg/kg) was 14692 ng/mL and the tlast ([3]; 15 mg/kg) was 6 h. For the same molecule, the AUCt/Dose ([3]; 40 mg/kg) was 1140 ng·h/mL per mg/kg, the Co ([3]; 40 mg/kg) was 23290 ng/mL and the tlast ([3]; 40 mg/kg) was 6 h. It also gave a concentration at 6 h ([3]; 15 mg/kg) of 58.4 ng/mL, a concentration at 6 h ([3]; 40 mg/kg) of 457 ng/mL and an AUC ([3]; 15 mg/kg) of 20500 ng·h/mL. The half-life ([3]; 15 mg/kg) was 45.6 min, the AUC ([3]; 40 mg/kg) was 46500 ng·h/mL and the half-life ([3]; 40 mg/kg) was 66 min. The AUC(0-t) ([3]; 15 mg/kg) was 20400 ng·h/mL and the AUC(0-t) ([3]; 40 mg/kg) was 45800 ng·h/mL.

Work on `Cc1c(N(C(=O)c2cc(-c3cc(Cl)ccc3C(=O)N3Cc4ccccc4C[C@H]3CN3CCOCC3)n(C)c2C)c2ccc(O)cc2)cc(C#N)n1C` [Compound A, 5-(5-chloro-2-{[(3S)-3-(morpholin-4-ylmethyl)-3,4-dihydroisoquinolin-2(1H)-yl]carbonyl}phenyl)-N-(5-cyano-1,2-dimethyl-1H-pyrrol-3-yl)-N-(4-hydroxyphenyl)-1,2-dimethyl-1H-pyrrole-3-carboxamide] yielded a tumor growth inhibition (RS4;11; 15 mg/kg i.v. once a week for 2 weeks) of 57.83%, a tumor growth inhibition (RS4;11; 40 mg/kg i.v. once a week for 2 weeks) of 75.52% and a solubility ([1]; aqueous media, free base, across all pHs) of under 10 µg/mL. It also gave a solubility at 24 h ([2]; aqueous with cosolvent or surfactant or cyclodextrin, in the carriers permitting substantial solubilisation (cyclodextrins, PEG400, PEG400/EtOH/0.9% NaCl), read-out: solubilities after 24 hours' stirring) of 10000 to 30000 µg/mL (≈ 13.9 to 41.8 mM), an exposure ([3]; 15 mg/kg i.v.) of 20463 ng·h/mL and an exposure ([3]; 40 mg/kg i.v.) of 46509 ng·h/mL. It also gave a Cmax ([3]; 15 mg/kg i.v.) of 14700 ng/mL and a Cmax ([3]; 40 mg/kg i.v.) of 23300 ng/mL.
